Earlier results in PMC7126291 (Bioorganic & Medicinal Chemistry Letters, 2009).

Legend:
human rhinovirus = conditions: Phase II clinical trials, intranasal delivery

Row | SMILES | reduction of mean total daily symptom score (human rhinovirus) [%] | IC50 (HAV 3C^pro) [nM]
1 | CCOC(=O)/C=C/[C@H](C[C@@H]1CCNC1=O)NC(=O)[C@@H](CC(=O)[C@@H](NC(=O)c1cc(C)on1)C(C)C)Cc1ccc(F)cc1 [rupintrivir] | 33 | –
2 | O=C(Oc1cncc(Br)c1)c1ccco1 [Compound 7] | – | 53
